# Data taken from US9051270B2, “Pyridone amides as modulators of sodium channels” (Vertex Pharmaceuticals Incorporated, priority 2013, dated 2015).
# pIC50: −log10 of the molar value.
# Key:
# [1] = Microsomal stability assay, rat liver microsomes (RLM); assay type: in vitro ADME; conditions: rat liver microsomes 0.5 mg/mL, 1 uM substrate, 2 mM NADPH, 37° C., referenced against time zero control
# Experimental: (§1) Microsomal Stability Assay.
# (§2) Compounds were incubated at 37° C. and shaken for 30 minutes in a phosphate buffered solution with either rat or human liver microsomes and the cofactor NADPH. A time zero control was similarly prepared, however with NADPH excluded. The final incubation concentrations were 1 uM substrate (0.2% DMSO), 0.5 mg/mL liver microsome, 2 mM NADPH, and 0.1 M phosphate. Reactions were quenched and proteins precipitated with the addition of 2 volume equivalents of ice cold acetonitrile containing an internal standard. Following a centrifugation step, aliquots from the quenched incubations were further diluted with 4 volume equivalents of a 50% aqueous methanol solution and then subjected to LC/MS/MS analysis for quantitation of parent compound. Microsome stability values were calculated as the percent of substrate remaining after 30 minutes referenced against the time zero control.
# (§3) Microsomal stability in rat and human liver microsomes were determined for selected compounds of the present invention using the above assay. Table 4 provides the human liver microsomes (“HLM”) and rat liver microsomes (“RLM”) stability data as the percent of compound remaining after 30 minutes referenced against the time zero control.
# human Nav1.8 = human Nav1.8 (Homo sapiens (Human), UniProt Q9Y5Y9); assay: E-VIPR optical membrane potential assay with electrical stimulation; assay type: cell-based; conditions: HEK cells expressing human Nav1.8
# Chain of human Nav1.8 (Q9Y5Y9 whole entry): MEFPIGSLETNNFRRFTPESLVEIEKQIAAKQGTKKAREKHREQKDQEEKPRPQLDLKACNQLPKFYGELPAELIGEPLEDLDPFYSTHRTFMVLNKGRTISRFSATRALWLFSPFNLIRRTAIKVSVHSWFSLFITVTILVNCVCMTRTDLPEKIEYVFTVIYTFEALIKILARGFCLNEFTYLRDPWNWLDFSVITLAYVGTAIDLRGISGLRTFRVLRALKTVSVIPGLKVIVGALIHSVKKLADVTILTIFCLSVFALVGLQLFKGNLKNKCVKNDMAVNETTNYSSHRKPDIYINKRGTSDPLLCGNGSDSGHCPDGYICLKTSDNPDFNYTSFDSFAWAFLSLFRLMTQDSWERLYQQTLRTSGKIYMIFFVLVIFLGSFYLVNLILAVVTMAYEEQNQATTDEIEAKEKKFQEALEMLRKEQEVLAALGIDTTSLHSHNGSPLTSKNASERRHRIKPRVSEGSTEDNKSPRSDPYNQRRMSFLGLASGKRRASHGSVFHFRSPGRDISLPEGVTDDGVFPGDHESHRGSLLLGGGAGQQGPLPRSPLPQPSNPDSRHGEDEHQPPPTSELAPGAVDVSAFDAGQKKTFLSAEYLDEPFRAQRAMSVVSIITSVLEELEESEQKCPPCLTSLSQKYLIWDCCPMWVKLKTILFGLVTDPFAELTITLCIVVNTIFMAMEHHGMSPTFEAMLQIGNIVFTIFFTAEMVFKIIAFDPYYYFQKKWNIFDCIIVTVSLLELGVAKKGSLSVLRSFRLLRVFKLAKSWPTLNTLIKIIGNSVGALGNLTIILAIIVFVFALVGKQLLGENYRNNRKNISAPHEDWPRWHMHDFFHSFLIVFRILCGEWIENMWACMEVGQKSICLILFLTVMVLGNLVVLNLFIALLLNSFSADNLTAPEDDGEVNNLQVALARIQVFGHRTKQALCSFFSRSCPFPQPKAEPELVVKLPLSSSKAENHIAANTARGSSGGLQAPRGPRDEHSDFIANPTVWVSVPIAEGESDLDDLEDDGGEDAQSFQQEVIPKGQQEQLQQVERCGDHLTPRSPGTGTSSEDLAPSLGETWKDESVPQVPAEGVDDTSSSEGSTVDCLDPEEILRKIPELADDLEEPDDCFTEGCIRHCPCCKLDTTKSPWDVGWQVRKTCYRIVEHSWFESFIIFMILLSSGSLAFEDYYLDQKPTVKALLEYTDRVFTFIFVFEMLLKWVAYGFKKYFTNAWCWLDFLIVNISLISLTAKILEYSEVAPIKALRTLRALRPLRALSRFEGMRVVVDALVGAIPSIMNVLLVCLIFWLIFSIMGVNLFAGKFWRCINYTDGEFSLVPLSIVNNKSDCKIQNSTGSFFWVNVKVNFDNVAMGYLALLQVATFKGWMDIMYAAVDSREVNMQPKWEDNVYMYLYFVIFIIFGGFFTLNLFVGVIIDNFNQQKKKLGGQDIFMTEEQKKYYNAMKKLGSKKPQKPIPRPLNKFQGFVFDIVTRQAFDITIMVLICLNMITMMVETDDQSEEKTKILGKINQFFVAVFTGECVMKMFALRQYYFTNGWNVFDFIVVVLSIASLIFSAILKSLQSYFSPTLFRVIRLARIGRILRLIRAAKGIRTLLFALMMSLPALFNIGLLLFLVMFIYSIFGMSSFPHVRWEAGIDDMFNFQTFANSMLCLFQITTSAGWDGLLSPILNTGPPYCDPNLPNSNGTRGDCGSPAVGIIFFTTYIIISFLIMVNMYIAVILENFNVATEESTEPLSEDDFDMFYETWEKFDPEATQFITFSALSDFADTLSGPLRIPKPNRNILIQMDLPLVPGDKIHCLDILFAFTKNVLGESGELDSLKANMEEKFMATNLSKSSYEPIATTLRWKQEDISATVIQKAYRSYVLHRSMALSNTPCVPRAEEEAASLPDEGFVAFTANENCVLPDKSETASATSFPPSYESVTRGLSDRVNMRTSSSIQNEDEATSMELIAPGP
# [2] = Microsomal stability assay, human liver microsomes (HLM); assay type: in vitro ADME; conditions: human liver microsomes 0.5 mg/mL, 1 uM substrate, 2 mM NADPH, 37° C., referenced against time zero control
# Experimental: as §1, §2, §3
Compound,RLM (% remaining @ 30 minutes) [1] [%],pIC50 (human Nav1.8),HLM (% remaining @ 30 minutes) [2] [%]
"O=C(Nc1cc[nH]c(=O)c1)c1cc(Cl)c(Cl)cc1Oc1ccc(F)cc1 [Compound 113, 4,5-dichloro-2-(4-fluorophenoxy)-N-(2-oxo-1,2-dihydropyridin-4-yl)benzamide]",102,8.22,105
"COc1cc(F)ccc1Oc1cc(Cl)c(Cl)cc1C(=O)Nc1cc[nH]c(=O)c1 [Compound 114, 4,5-dichloro-2-(4-fluoro-2-methoxyphenoxy)-N-(2-oxo-1,2-dihydropyridin-4-yl)benzamide]",82,9.00,91
"O=C(Nc1cc[nH]c(=O)c1)c1ccc(C(F)(F)F)cc1OCCCC(F)(F)F [Compound 123, N-(2-oxo-1,2-dihydropyridin-4-yl)-2-(4,4,4-trifluorobutoxy)-4-(trifluoromethyl)benzamide]",98,6.45,103

# The remaining lines, values ahead:
RLM (% remaining @ 30 minutes) [1] [%],pIC50 (human Nav1.8),HLM (% remaining @ 30 minutes) [2] [%],Compound
95,8.15,102,"COc1ccc(Oc2cc(Cl)c(Cl)cc2C(=O)Nc2cc[nH]c(=O)c2)cc1F [Compound 115, 4,5-dichloro-2-(3-fluoro-4-methoxyphenoxy)-N-(2-oxo-1,2-dihydropyridin-4-yl)benzamide]"
79,6.82,87,"O=C(Nc1cc[nH]c(=O)c1)c1ccc(C(F)(F)F)cc1OCC1CCCC1 [Compound 120, 2-(cyclopentylmethoxy)-N-(2-oxo-1,2-dihydropyridin-4-yl)-4-(trifluoromethyl)benzamide]"
50,6.19,38,"CC(C)(C)c1ccc(C(=O)Nc2ccc(=O)[nH]c2)c(Oc2ccc(C(F)(F)F)nc2)c1 [Compound 142, 4-(tert-butyl)-N-(6-oxo-1,6-dihydropyridin-3-yl)-2-((6-(trifluoromethyl)pyridin-3-yl)oxy)benzamide]"
100,7.36,103,"O=C(Nc1cc[nH]c(=O)c1)c1c(Oc2ccc(F)cc2F)cc(C(F)(F)F)cc1C(F)(F)F [Compound 152, 2-(2,4-difluorophenoxy)-N-(2-oxo-1,2-dihydropyridin-4-yl)-4,6-bis(trifluoromethyl)benzamide]"
102,7.24,101.5,"O=C(Nc1cc[nH]c(=O)c1)c1ccc(C(F)(F)F)cc1Oc1ccc(F)cc1CO [Compound 157, 2-(4-fluoro-2-(hydroxymethyl)phenoxy)-N-(2-oxo-1,2-dihydropyridin-4-yl)-4-(trifluoromethyl)benzamide]"
